{"source": "patent US9505763B2", "about": "“Cancer treatment using BMP inhibitor” (Vanderbilt University, priority 2011, dated 2016)", "key": {"A549 cells [1]": {"tested_on": "A549 cells", "assay": "Cell counts after 7 days", "assay_type": "cell-based", "details": "DMEM 5% FCS, 10 μM Dorsomorphin or 1 μM DMH1, DMH2, LDN", "procedure": "(§1) Cell Counts. A549 and H1299 cells were plated into 6 well plates with 100,000 cells per well. Cells were treated with DMSO or a BMP receptor antagonist for 7 days. The cells were detached with trypsin, stained with trypan blue, and the number of live cells counted using a hemacytometer."}, "H1299 cells [2]": {"tested_on": "H1299 cells", "assay": "Cell counts after 7 days", "assay_type": "cell-based", "procedure": "as §1"}, "A549 cells [3]": {"tested_on": "A549 cells", "assay": "Clonogenic growth assay", "assay_type": "cell-based", "details": "1 μM, 2 weeks", "procedure": "(§2) Clonigenic Growth Assay. A549 and H1299 cells were plated into 6 well plates with 500 cells per well. The next day the cells were treated with DMSO or a BMP receptor antagonist for 2 weeks. The colonies were stained with Diff-Quick (IMEB Inc. San Marcos, Calif.) and the total number of colonies per well counted."}, "H1299 cells [4]": {"tested_on": "H1299 cells", "assay": "Clonogenic growth assay", "assay_type": "cell-based", "details": "1 μM, 2 weeks", "procedure": "as §2"}, "[5]": {"target": "T1, constitutively active alk3 (ca-alk3) (Homo sapiens, UniProt P36894, Q233D)", "T1 construct": "expressed in transfected cells; host or cells: H1299", "T1 sequence (P36894 24-532 Q233D)": "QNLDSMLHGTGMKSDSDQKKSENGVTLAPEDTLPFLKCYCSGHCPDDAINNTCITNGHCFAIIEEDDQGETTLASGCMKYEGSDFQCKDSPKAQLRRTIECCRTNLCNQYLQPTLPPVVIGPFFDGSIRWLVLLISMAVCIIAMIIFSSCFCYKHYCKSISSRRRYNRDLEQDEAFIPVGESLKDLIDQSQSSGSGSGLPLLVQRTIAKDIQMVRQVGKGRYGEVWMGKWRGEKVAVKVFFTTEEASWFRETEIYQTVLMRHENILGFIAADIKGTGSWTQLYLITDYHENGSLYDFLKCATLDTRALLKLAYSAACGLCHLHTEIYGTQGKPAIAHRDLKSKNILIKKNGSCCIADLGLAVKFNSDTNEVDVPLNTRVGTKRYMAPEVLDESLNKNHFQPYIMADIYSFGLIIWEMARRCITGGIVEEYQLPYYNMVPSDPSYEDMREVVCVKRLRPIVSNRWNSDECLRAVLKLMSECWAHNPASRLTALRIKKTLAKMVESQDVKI", "assay": "BRE-luciferase with constitutively active alk3 in H1299 cells", "assay_type": "cell-based", "details": "1 μM antagonist", "procedure": "(§3) To assess the effects of antagonists on a specific type I BMP receptor, 2 μg of constitutively active ca-alk3 and ca-alk6 expression vectors were co-transfected with the BRE-luciferase reporter into H1299 cells with Nucleofector II. Control cells were co-transfected with the pcDNA3 expression vector. After 48 hours the cells were treated with DMSO or a BMP receptor antagonist for 48 hours and luminescence was measured."}, "H1299 cells [6]": {"tested_on": "H1299 cells", "assay": "BrdU incorporation assay", "assay_type": "cell-based", "details": "1 μM or 5 μM", "procedure": "BrdU Assay. Thirty-thousand H1299 cells were plated into 96 well plates. The next day the cells were treated with 1 μM DMSO, 5 μM DMSO, 1 μM DMH2, or 5 μM DMH2 for 24 and 48 hours. BrdU incorporation was measured using the Cell Proliferation ELISA, BrdU colorimetric kit as per manufacture's instruction (Roche, Indianapolis, […]). Cells were incubated with BrdU labeling solution for 2 hours, fixed/denatured, and BrdU located with a peroxidase-conjugated anti-BrdU antibody. Knockdown of all type I BMP receptors were performed in the H1299 cells by transfecting siRNA for alk2, alk3, and alk6 or control siRNA. Three days after transfection BrdU incorporation was determined. Studies were performed 4 times in triplicate."}, "AMP kinase": {"tested_on": "AMP kinase", "details": "compared with Dorsomorphin and LDN; cited from earlier work"}, "VEGF II": {"target": "VEGF II (Homo sapiens, UniProt P35968)", "sequence (P35968 20-1356)": "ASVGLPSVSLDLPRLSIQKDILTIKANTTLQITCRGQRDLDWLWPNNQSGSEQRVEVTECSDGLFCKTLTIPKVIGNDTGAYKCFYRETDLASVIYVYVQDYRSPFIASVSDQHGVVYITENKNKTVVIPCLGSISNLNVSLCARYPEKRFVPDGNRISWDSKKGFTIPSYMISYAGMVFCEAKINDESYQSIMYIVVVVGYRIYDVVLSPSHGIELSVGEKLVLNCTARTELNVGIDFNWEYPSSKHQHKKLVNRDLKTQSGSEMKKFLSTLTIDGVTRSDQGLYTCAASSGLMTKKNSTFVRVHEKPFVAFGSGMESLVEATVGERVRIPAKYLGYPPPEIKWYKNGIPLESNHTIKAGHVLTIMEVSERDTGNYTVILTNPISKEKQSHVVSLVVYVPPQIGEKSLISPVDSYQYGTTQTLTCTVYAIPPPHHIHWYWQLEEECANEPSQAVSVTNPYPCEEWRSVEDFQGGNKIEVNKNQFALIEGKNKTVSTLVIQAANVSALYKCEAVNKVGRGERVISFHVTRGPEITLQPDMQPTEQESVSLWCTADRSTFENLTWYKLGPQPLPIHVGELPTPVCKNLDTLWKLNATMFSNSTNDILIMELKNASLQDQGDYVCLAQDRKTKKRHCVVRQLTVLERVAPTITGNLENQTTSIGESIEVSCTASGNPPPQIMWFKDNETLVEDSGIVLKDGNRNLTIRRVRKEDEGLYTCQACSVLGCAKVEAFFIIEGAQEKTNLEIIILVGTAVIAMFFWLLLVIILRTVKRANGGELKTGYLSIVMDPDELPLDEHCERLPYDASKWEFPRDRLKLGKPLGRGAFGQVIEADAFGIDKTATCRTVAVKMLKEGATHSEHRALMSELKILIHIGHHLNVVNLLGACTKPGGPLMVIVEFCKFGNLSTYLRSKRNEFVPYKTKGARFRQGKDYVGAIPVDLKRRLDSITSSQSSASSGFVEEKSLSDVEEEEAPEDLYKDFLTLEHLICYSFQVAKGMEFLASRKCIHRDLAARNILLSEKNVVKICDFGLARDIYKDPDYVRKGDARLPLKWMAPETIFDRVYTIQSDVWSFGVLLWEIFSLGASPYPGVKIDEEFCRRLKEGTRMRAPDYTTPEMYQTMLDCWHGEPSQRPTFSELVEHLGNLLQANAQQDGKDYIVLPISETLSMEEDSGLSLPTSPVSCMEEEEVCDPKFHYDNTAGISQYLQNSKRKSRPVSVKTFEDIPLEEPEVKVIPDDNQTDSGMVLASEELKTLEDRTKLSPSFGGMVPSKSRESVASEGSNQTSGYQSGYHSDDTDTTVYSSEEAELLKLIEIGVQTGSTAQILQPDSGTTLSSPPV", "details": "compared with Dorsomorphin and LDN; cited from earlier work"}, "[7]": {"target": "platelet-derived growth factor receptor-β (Homo sapiens, UniProt P09619)", "sequence (P09619 33-1106, species assumed)": "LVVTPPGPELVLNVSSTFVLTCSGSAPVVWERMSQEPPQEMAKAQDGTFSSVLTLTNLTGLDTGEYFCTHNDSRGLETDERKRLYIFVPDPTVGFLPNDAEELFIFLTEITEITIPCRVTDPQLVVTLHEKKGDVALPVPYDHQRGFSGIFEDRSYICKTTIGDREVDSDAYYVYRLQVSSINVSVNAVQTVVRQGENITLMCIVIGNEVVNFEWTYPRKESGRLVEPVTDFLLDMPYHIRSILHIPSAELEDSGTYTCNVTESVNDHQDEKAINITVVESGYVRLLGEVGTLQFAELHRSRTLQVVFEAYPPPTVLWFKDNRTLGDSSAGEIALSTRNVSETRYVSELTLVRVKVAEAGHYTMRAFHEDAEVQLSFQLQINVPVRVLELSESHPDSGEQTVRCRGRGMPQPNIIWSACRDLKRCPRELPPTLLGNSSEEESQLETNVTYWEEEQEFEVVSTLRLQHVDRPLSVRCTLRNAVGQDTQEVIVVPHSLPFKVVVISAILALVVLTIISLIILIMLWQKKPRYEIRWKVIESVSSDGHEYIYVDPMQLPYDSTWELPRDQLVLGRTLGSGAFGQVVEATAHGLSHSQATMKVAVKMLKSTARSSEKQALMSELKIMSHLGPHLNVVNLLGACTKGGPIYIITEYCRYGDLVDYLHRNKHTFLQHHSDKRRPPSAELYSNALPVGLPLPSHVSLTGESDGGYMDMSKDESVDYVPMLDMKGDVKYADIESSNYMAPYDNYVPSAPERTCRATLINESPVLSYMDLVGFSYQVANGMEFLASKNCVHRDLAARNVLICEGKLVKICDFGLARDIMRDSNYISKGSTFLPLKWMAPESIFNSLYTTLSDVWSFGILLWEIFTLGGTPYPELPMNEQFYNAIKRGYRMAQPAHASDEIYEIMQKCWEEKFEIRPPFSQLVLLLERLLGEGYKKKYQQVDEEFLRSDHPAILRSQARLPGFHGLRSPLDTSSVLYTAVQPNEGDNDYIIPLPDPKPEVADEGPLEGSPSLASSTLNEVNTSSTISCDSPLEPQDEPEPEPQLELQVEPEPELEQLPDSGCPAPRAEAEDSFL", "details": "compared with Dorsomorphin and LDN; cited from earlier work"}, "[8]": {"tested_on": "phosphorylated Smad 1/5/8", "assay": "Western blot for phosphorylated Smad 1/5/8", "assay_type": "cell-based", "procedure": "Western Blot Analysis. Total cellular protein was prepared using RIPA buffer containing a protease inhibitor cocktail and protein concentration was measured using the BCA assay as described. In brief, protein was analyzed by SDS-PAGE, transferred to nitrocellulose (Schleicher and Schuell, Keene, N.H.). After blocking, the blots were incubated overnight at 4° C. with the appropriate primary antibody in Tris-buffered saline with 1% Tween (TBST) and 5% non-fat milk. Secondary antibodies were applied for 1 hour at room temperature. Specific proteins were detected using the enhanced chemiluminescence system (Amersham, Arlington Heights, Ill.). The primary antibodies that were used were rabbit monoclonal anti-pSmad 1/5/8 (Cell signaling Technology, Danvers Mass.) rabbit anti-actin, an affinity isolated antigen specific antibody (Sigma, Saint Louis, Mo.), rabbit monoclonal anti-Id1 and rabbit monoclonal anti-Id3 (Calbioreagents, San Mateo, Calif.)."}, "[9]": {"tested_on": "constitutively active alk6 (ca-alk6)", "assay": "BRE-luciferase with constitutively active alk6 in H1299 cells", "assay_type": "cell-based", "details": "1 μM antagonist", "procedure": "as §3"}, "[10]": {"tested_on": "Id1, Id2, and Id3 expression", "assay": "Quantitative RT-PCR for Id family members", "assay_type": "cell-based", "details": "A549 and H1299 cell lines; 10 μM Dorsomorphin, 1 μM DMH1 or DMH2; 48 hours", "procedure": "Quantification of Gene Expression. RNA was extracted using the RNeasy kit as per the manufacturer's instructions (Qiagen, Valencia, Calif.). DNAase was used to remove any DNA contamination. cDNA was generated using Advantage RT for PCR kit (BD BiosciencesClontech, Palo Alto, Calif.). Quantitative PCR was performed with the Stratagene Mx3005p (Agilent Technologies) and predesigned validated Taq-Man gene expression assays according to the manufacturer's specifications (Applied Biosystems, Foster City, Calif.). Reference numbers used are: GAPDH (Hs99999905_m1), ACVRL1 (alk1) (Hs00163543_m1), ACVR1A (alk2) (Hs00153836_m1), BMR1A (alk3) (Hs00831730_s1), BMPR1B (alk6) (Hs00176144_m1), Id1 (Hs00357821_g1), Id2 (Hs00747379_m1), and Id3 (Hs00171409-m1). Negative control included all reagents except cDNA. Expression was normalized to GAPDH using the formula […]."}, "TGFβ receptor alk5": {"target": "T2, TGFβ receptor alk5 (Homo sapiens, UniProt P36897)", "T2 sequence (P36897 34-503)": "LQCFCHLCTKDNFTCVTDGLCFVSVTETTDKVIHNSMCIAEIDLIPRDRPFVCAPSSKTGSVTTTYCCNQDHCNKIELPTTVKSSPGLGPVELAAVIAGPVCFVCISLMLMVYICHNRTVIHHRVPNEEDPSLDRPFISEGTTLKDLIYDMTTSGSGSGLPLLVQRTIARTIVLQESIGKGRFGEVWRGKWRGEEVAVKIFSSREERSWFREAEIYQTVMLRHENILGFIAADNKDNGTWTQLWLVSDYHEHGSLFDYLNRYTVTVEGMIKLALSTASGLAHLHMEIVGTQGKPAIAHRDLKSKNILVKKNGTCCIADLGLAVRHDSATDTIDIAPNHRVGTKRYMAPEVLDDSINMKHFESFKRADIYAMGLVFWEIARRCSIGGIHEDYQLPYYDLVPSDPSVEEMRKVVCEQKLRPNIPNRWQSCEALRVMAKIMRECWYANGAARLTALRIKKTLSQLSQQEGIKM", "details": "compared with Dorsomorphin and LDN; cited from earlier work"}}, "note": "“Also recorded” adds a separate entry of the source."}
{"smiles": "CN(C)CCCOc1ccc(-c2cnc3c(-c4ccnc5ccccc45)cnn3c2)cc1", "note": "[DMH2]", "values": [{"measurement": "cell growth (number of cells)", "setting": "A549 cells [1]", "result": "significantly more growth inhibition than DMH1"}, {"measurement": "cell growth (number of cells)", "setting": "H1299 cells [2]; H1299, DMEM 5% FCS, 10 μM Dorsomorphin or 1 μM DMH1, DMH2, LDN", "result": "significantly more growth inhibition than DMH1"}, {"measurement": "cell growth (number of cells)", "setting": "H1299 cells [2]; H1299 cultured in SFM, 1 μM", "result": "significant inhibition of cell growth"}, {"measurement": "clonogenic growth", "setting": "A549 cells [3]", "result": "inhibited more by DMH2 and LDN than DMH1"}, {"measurement": "clonogenic growth", "setting": "H1299 cells [4]", "result": "inhibited more by DMH2 and LDN than DMH1"}, {"measurement": "inhibition of ca-alk3 activity (BRE-luciferase)", "setting": "[5]", "result": "greater reduction of alk3 activity than DMH1 and LDN; also recorded: significant inhibition"}, {"measurement": "proliferation (BrdU incorporation)", "setting": "H1299 cells [6]; 24 hours", "result": "dose dependent decrease in proliferation"}, {"measurement": "proliferation (BrdU incorporation)", "setting": "H1299 cells [6]; 48 hours", "result": "more profound effect"}, {"measurement": "activity for AMP kinase (comparison)", "setting": "AMP kinase", "result": "less activity"}, {"measurement": "activity for VEGF II (comparison)", "setting": "VEGF II", "result": "less activity"}, {"measurement": "activity for platelet-derived growth factor receptor-β (comparison)", "setting": "[7]", "result": "less activity"}, {"measurement": "phosphorylated Smad 1/5/8 expression", "setting": "[8]; A549 cells", "result": "decreases"}, {"measurement": "level of phosphorylated Smad 1/5/8 expression", "setting": "[8]; lung cancer cell lines (H1299, A549)", "result": "decreased"}, {"measurement": "inhibition of ca-alk6 activity (BRE-luciferase)", "setting": "[9]", "result": "more inhibition of alk6 than DMH1 and LDN"}, {"measurement": "Id1, Id2, and Id3 expression (mRNA)", "setting": "[10]", "result": "significantly decreased"}, {"measurement": "activity for TGFβ receptor alk5 (comparison)", "setting": "TGFβ receptor alk5", "result": "less activity"}]}
